Where two headings read alike, the source gives them in different places. Square brackets hold non-standard residues; d marks the D form. Peptide text beside a SMILES is read from it.
Experiments:
[1] = tested on: Escherichia coli ATCC 25922; type: cell-based
Method: (§1) Microbiological studies were performed on Escherichia coli ATCC 25922 and Staphylococcus aureus ATCC 10566 (American Type Culture Collection (ATCC), Rockville, MD, USA) using carefully standardized conditions. A suspension of the bacteria (in exponential phase of growth) was prepared and then diluted to yield a final concentration of approximately 1 × 10^5 colony forming units (cfu) per milliliter. Stock peptides were dissolved in 9% sucrose solutions containing 5% dimethyl sulfoxide. The 96-well microtiter tray containing the bacterial cultures and peptides was incubated for 18 hrs at 35°C. […] All tests were conducted in triplicate and the reported MIC values were derived from at least three independent experiments.
(§2) COP 4–9 were then designed to include a glutamyl residue to reduce the overall cationic charges on these amphipathic cyclopeptides. […] A lysine residue in COP 4 was sequentially substituted with histidine in COP 5, cysteine in COP 6, and leucine in COP 7. […] As the net positive charges of the cyclopeptide decreased, antimicrobial activity decreased by fourfold (see COP 6). […] The decreasing antimicrobial activities of these cyclopeptides could be attributed to their diminishing cationic character and an inadequate balance of amphipathic residues in their sequences. These structurally similar cyclopeptides (COP 1–9) were subsequently evaluated for calcium(II) binding affinity by ITC and assessed for conformational changes upon calcium(II) binding by circular dichroism (CD).

[2] = tested on: Staphylococcus aureus ATCC 10566; type: cell-based
Method: as §1, §2

[3] = Isothermal titration calorimetry of Ca2+ binding in 10% acetonitrile in water; settings: ITC, 30°C, no DPC, peptide 0.15 or 0.30 mM, Ca(ClO4)2 9 to 15 mM in syringe, one-site model, mean of three experiments ± standard error mean
Method: (§3) Microcalorimetric titrations of peptides with metal ions were conducted by isothermal titration microcalorimetry (ITC) using a Microcal VP-ITC Instrument (Northampton, MA, USA). Experiments were carried out at 30°C in 10% acetonitrile in water. The peptide concentration was 0.15 or 0.30 mM (1.34 mL sample cell), and the metal ion [Ca(ClO4)2] concentration was varied from 9 to 15 mM in the syringe. Automated titrations were conducted until saturation, up to a Ca^2+/peptide mole ratio of about 12 : 1. Heats of dilution and mixing for each experiment were measured by titrating calcium(II) solution into 10% acetonitrile solution. The effective heat of each peptide and calcium(II) interaction was corrected for dilution and mixing effects by subtracting the enthalpy change derived from the titration of calcium(II) solution into the 10% acetonitrile solution without the peptide. In a similar way, ITC experiments were carried out at 30°C in 10% aqueous acetonitrile containing 10 mM DPC. These heats of bimolecular interactions were obtained by integrating the peak following each injection of calcium(II). The binding isotherms were derived from the raw ITC data following correction for dilution and mixing effects. These isotherms were fitted using the one-site model by a nonlinear least square analysis with Microcal Origin 7.0 software (Microcal Software, Inc., Northampton, MA, USA) to determine the molar enthalpy change for binding, ΔH, and the corresponding binding constant, K b. From these values, the thermodynamic characterization of the interaction at 30°C was determined from the fundamental equations of thermodynamics, ΔG = −RT ln K b and ΔS = (ΔH − ΔG)/T.

[4] = Isothermal titration calorimetry of Ca2+ binding in micellar DPC (10 mM); settings: ITC, 30°C, 10% aqueous acetonitrile containing 10 mM micellar DPC; one-site model; mean of three experiments ± standard error mean
Method: as §3
In order to mimic the hydrophobic environment of the bacterial membrane that antimicrobial peptides commonly target, the interactions of these cyclopeptides with calcium(II) were also conducted in the presence of micellar dodecylphosphocholine (DPC). […] However, their association is compensated by an increase in entropy (ΔS values range from ca. 42.7 to 66.5 JK^−1 mol^−1). This entropy/enthalpy compensation could be attributed to a greater degree of dehydration of the hydration spheres around the cyclopeptide molecules and calcium ions following complex formation in the hydrophobic micellar DPC environment. However, there is no significant trend in the enthalpy or entropy changes following calcium(II) binding in the presence of micellar DPC.

[5] = Mueller-Hinton microbroth dilution, ca. 1 × 10^5 cfu/mL, 18 hrs at 35°C, visual turbidity, range tested 256 to 2 μg/mL, triplicate, at least three independent experiments

CC(C)C[C@@H]1NC(=O)[C@@H](CCCCN)NC(=O)[C@H](CCCCN)NC(=O)[C@@H](CCCCN)NC(=O)[C@H](CCCCN)NC(=O)[C@@H](CC(C)C)NC(=O)[C@H](CC(C)C)NC(=O)[C@@H](CC(C)C)NC1=O [COP 1] (cyclo(K[dK]K[dK]L[dL]L[dL]))
E. coli ATCC 25922 MIC [1, 5]: 16 µg/mL
S. aureus ATCC 10566 MIC [2, 5]: 8 µg/mL
Binding affinity for Ca^2+ K b [3]: (3.4 ± 0.6) × 10^3 M^−1

CC(C)C[C@@H]1NC(=O)[C@@H](CC(C)C)NC(=O)[C@H](CC(C)C)NC(=O)[C@@H](CCCCN)NC(=O)[C@H](CCCCN)NC(=O)[C@@H](CCCCN)NC(=O)[C@H](CCCCN)NC(=O)[C@@H](Cc2c[nH]c3ccccc23)NC1=O [COP 2] (cyclo(K[dK]K[dK]L[dL]L[dW]))
E. coli ATCC 25922 MIC [1, 5]: 16 µg/mL
S. aureus ATCC 10566 MIC [2, 5]: 8 µg/mL
Binding affinity for Ca^2+ K b [3]: (4.8 ± 1.3) × 10^3 M^−1

CC(C)C[C@@H]1NC(=O)[C@@H](CC(C)C)NC(=O)[C@H](CCCCN)NC(=O)[C@@H](CCCCN)NC(=O)[C@H](CCCCN)NC(=O)[C@@H](CCCCN)NC(=O)[C@H](CS)NC(=O)[C@@H](CC(C)C)NC1=O [COP 3] (cyclo(C[dK]K[dK]K[dL]L[dL]))
E. coli ATCC 25922 MIC ([1]; ATCC 25922, 18 h): 16 µg/mL
S. aureus ATCC 10566 MIC ([2]; ATCC 10566, 18 h): 16 µg/mL
Binding affinity for Ca^2+ K b [3]: (7.9 ± 2.8) × 10^3 M^−1
Binding affinity for Ca^2+ K b [4]: (3.3 ± 0.3) × 10^3 M^−1

CC(C)C[C@@H]1NC(=O)[C@@H](CC(C)C)NC(=O)[C@H](CCC(=O)O)NC(=O)[C@@H](CCCCN)NC(=O)[C@H](CCCCN)NC(=O)[C@@H](CCCCN)NC(=O)[C@H](CCCCN)NC(=O)[C@@H](CC(C)C)NC1=O [COP 4] (cyclo(E[dL]L[dL]K[dK]K[dK]))
E. coli ATCC 25922 MIC [1, 5]: 16 µg/mL
S. aureus ATCC 10566 MIC [2, 5]: 32 µg/mL
Binding affinity for Ca^2+ K b [3]: (3.1 ± 0.7) × 10^3 M^−1
Binding affinity for Ca^2+ K b [4]: (4.7 ± 1.1) × 10^3 M^−1

CC(C)C[C@@H]1NC(=O)[C@@H](CC(C)C)NC(=O)[C@H](CCC(=O)O)NC(=O)[C@@H](CCCCN)NC(=O)[C@H](CCCCN)NC(=O)[C@@H](CCCCN)NC(=O)[C@H](Cc2c[nH]cn2)NC(=O)[C@@H](CC(C)C)NC1=O [COP 5] (cyclo(E[dL]L[dL]H[dK]K[dK]))
E. coli ATCC 25922 MIC ([1]; ATCC 25922, 18 h): 32 µg/mL
S. aureus ATCC 10566 MIC ([2]; ATCC 10566, 18 h): 128 µg/mL
Binding affinity for Ca^2+ K b [3]: (5.3 ± 1.4) × 10^3 M^−1
Binding affinity for Ca^2+ K b [4]: (5.4 ± 0.6) × 10^3 M^−1

CC(C)C[C@@H]1NC(=O)[C@@H](CC(C)C)NC(=O)[C@H](CCC(=O)O)NC(=O)[C@@H](CCCCN)NC(=O)[C@H](CCCCN)NC(=O)[C@@H](CCCCN)NC(=O)[C@H](CS)NC(=O)[C@@H](CC(C)C)NC1=O [COP 6] (cyclo(C[dK]K[dK]E[dL]L[dL]))
E. coli ATCC 25922 MIC ([1]; ATCC 25922, 18 h): 128 µg/mL
S. aureus ATCC 10566 MIC ([2]; ATCC 10566, 18 h): 128 µg/mL
Binding affinity for Ca^2+ K b [3]: (6.4 ± 2.8) × 10^3 M^−1
Binding affinity for Ca^2+ K b [4]: (4.9 ± 0.7) × 10^3 M^−1

CC(C)C[C@@H]1NC(=O)[C@@H](CC(C)C)NC(=O)[C@H](CC(C)C)NC(=O)[C@@H](CC(C)C)NC(=O)[C@H](CCC(=O)O)NC(=O)[C@@H](CCCCN)NC(=O)[C@H](CCCCN)NC(=O)[C@@H](CCCCN)NC1=O [COP 7] (cyclo(E[dL]L[dL]L[dK]K[dK]))
E. coli ATCC 25922 MIC ([1]; ATCC 25922, 18 h): >256 µg/mL
S. aureus ATCC 10566 MIC ([2]; ATCC 10566, 18 h): >256 µg/mL
Binding affinity for Ca^2+ K b [3]: (8.0 ± 1.2) × 10^3 M^−1
Binding affinity for Ca^2+ K b [4]: (4.7 ± 1.0) × 10^3 M^−1

CC(C)C[C@@H]1NC(=O)[C@@H](CC(C)C)NC(=O)[C@H](CCC(=O)O)NC(=O)[C@@H](CCCCN)NC(=O)[C@H](Cc2c[nH]cn2)NC(=O)[C@@H](CCCCN)NC(=O)[C@H](Cc2c[nH]cn2)NC(=O)[C@@H](CC(C)C)NC1=O [COP 8] (cyclo(E[dL]L[dL]H[dK]H[dK]))
E. coli ATCC 25922 MIC ([1]; ATCC 25922, 18 h): >256 µg/mL
S. aureus ATCC 10566 MIC ([2]; ATCC 10566, 18 h): >256 µg/mL
Binding affinity for Ca^2+ K b [3]: (4.9 ± 0.3) × 10^3 M^−1
Binding affinity for Ca^2+ K b [4]: (4.4 ± 0.02) × 10^3 M^−1

CC(C)C[C@@H]1NC(=O)[C@@H](CC(C)C)NC(=O)[C@H](CCC(=O)O)NC(=O)[C@@H](CCCCN)NC(=O)[C@H](CCCCN)NC(=O)[C@@H](CCCCN)NC(=O)[C@H](CCC(=O)O)NC(=O)[C@@H](CC(C)C)NC1=O [COP 9] (cyclo(E[dK]K[dK]E[dL]L[dL]))
E. coli ATCC 25922 MIC ([1]; ATCC 25922, 18 h): >256 µg/mL
S. aureus ATCC 10566 MIC ([2]; ATCC 10566, 18 h): >256 µg/mL
Binding affinity for Ca^2+ K b [3]: (5.4 ± 1.2) × 10^3 M^−1
Binding affinity for Ca^2+ K b [4]: (4.1 ± 0.03) × 10^3 M^−1

Reference: publication PMC4207412, “Secondary Structural Preferences of Some Antibacterial Cyclooctapeptides in the Presence of Calcium(II)” (International Journal of Medicinal Chemistry, 2012)
